For one experiment, the target named is T1, human OX1 receptors (Homo sapiens, UniProt O43613).
T1 construct: expressed in transfected cells; host or cells: CHO cells
T1 sequence (O43613 1-425): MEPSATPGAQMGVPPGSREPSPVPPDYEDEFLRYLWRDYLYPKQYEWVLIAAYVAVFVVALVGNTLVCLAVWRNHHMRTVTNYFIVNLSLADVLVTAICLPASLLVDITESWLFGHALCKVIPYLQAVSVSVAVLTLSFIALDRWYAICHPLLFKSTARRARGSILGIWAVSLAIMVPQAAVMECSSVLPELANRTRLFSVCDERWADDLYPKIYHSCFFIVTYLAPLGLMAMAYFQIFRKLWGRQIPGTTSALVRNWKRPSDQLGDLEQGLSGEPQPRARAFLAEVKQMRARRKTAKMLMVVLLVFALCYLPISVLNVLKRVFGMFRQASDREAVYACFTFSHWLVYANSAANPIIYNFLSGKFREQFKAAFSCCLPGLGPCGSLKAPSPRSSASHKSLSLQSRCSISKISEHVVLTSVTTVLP
The experiment can be described thus: Antagonistic activity against human OX1 receptor, [Ca2+]i fluorimetry (Fluo-4NW) in transfected CHO cells activated with orexin-A. The experiment is classed as cell-based. As to conditions: CHO cells transfected with human recombinant OX1; orexin-A 3 nM; pKb = co-logarithm of apparent dissociation constant, modified Cheng Prusoff. The protocol: (§1) In a typical experiment, the antagonistic activity against human OX1 and OX2 receptors is determined by using CHO e HEK-293 cells transfected with human recombinant OX1 and OX2 receptors respectively, seeded at density of 2 and 3×10^4 cells/well respectively in a 96 fluorimetry well plate. Thus the plate was loaded with the calcium dye (Fluo-4NW/probenecid in HBSS, Hepes 20 mM, pH 7.4; Invitrogen) at 37° C. for 60 min. Afterward the temperature was equilibrated at 22° C. for 15 min and the [Ca2+]i measured directly on the plate by using a fluorescent plate reader (CellLux Perkin Elmer).
(§2) Invention compounds were dissolved in DMSO, diluted in HBSS (DMSO, 0.3% final) and added to the wells. After 5 min CHO cells were activated with orexin-A, 3 nM while HEK-293 cells were activated with orexin-B, 10 nM.
(§3) The compounds, dissolved in DMSO and diluted in the medium (DMSO, 0.3% final), have been analysed in the 1 nM-1 μM concentration range (every concentration in duplicate). The antagonistic activity has been expressed as pKb (co-logarithm of the apparent dissociation constant calculated by using the modified Cheng Prusoff equation).
(§4) The results are expressed as percent of control specific […] response ((measured specific response/control specific agonist response)×100) obtained in the presence of the test compounds.
(§5) The IC50 values (concentration causing a half-maximal inhibition of the control specific agonist response) were determinated by non-linear regression analysis of the concentration curves generated with mean replicate values using hill equation curve fitting. The IC50 values are obtained by the arithmetical mean of at least two experiments. Compounds of the following example tested according to this example gave pKbs as follows: […]

The target in another experiment is T2, human OX2 receptors (Homo sapiens, UniProt O43614).
T2 construct: expressed in transfected cells; host or cells: HEK-293 cells
T2 sequence (O43614 1-444): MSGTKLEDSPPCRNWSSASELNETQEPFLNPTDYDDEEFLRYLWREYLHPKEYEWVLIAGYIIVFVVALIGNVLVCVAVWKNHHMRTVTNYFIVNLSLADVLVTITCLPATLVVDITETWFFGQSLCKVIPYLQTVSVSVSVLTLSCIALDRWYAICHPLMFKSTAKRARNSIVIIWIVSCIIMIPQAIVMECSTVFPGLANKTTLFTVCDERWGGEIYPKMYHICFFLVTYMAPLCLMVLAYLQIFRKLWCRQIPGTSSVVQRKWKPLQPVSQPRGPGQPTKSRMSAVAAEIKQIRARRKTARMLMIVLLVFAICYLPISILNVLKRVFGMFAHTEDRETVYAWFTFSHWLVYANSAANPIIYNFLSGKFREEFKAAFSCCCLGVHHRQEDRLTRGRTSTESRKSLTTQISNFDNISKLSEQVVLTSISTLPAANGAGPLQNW
Put plainly: Antagonistic activity against human OX2 receptor, [Ca2+]i fluorimetry (Fluo-4NW) in transfected HEK-293 cells activated with orexin-B. The class given is cell-based. As to conditions: HEK-293 cells transfected with human recombinant OX2; orexin-B 10 nM; pKb = co-logarithm of apparent dissociation constant, modified Cheng Prusoff. The protocol:
as §1, §2, §3, §4, §5

Take `Cc1nc(C(=O)N2CC3(CC3)C[C@H]2CNc2nc3ccc(Cl)cc3s2)c(-c2ccccc2)s1` [Compound 2i, (S)-(6-(((6-chlorobenzo[d]thiazol-2-yl)amino)methyl)-5-azaspiro[2.4]heptan-5-yl)(2-methyl-5-phenylthiazol-4-yl)methanone]: the Kb is 12.6 nM on human OX1 receptors and 31.6 nM at human OX2 receptors.
The like results for `Cc1ccc(-c2ccc(F)cc2)c(C(=O)N2CC3(CC3)C[C@H]2CNc2ccc(C(F)(F)F)cn2)n1` [Compound 3f, (S)-(3-(4-fluorophenyl)-6-methylpyridin-2-yl)(6-(((5-(trifluoromethyl)pyridin-2-yl)amino)methyl)-5-azaspiro[2.4]heptan-5-yl)methanone] were, in that order, 7.94 nM and 7.94 nM.
Taken in the same sequence, the figures for `O=C(c1ncccc1-c1ccccn1)N1CC2(CC2)C[C@H]1CNc1ccc(C(F)(F)F)cn1` [Compound E7, (S)-[2,3′-bipyridin]-2′-yl(6-(((5-(trifluoromethyl)pyridin-2-yl)amino)methyl)-5-azaspiro[2.4]heptan-5-yl)methanone] were 3.98 nM and 126 nM.
The like results for `Cc1cnn(-c2ccc(C)nc2C(=O)N2CC3(CC3)C[C@H]2CNc2ccc(C(F)(F)F)cn2)c1` [Compound 3i, (S)-(6-methyl-3-(4-methyl-1H-pyrazol-1-yl)pyridin-2-yl)(6-(((5-(trifluoromethyl)pyridin-2-yl)amino)-methyl)-5-azaspiro[2.4]heptan-5-yl)methanone] were, in that order, 1.26 nM and 5.01 nM.
As to `Cc1ccc(-c2ncccn2)c(C(=O)N2CC3(CC3)C[C@H]2CNc2nc3cc(Cl)ccc3o2)n1` [Compound E10, (S)-(6-(((5-chlorobenzo[d]oxazol-2-yl)amino)methyl)-5-azaspiro[2.4]heptan-5-yl)(6-methyl-3-(pyrimidin-2-yl)pyridin-2-yl)methanone], the Kb at human OX1 receptors is 7.94 nM; on human OX2 receptors it was 79.4 nM.
The like results for `Cc1ccc(-c2ccccc2)c(C(=O)N2CC3(CC3)C[C@H]2CNc2ncc(C(F)(F)F)cc2F)n1` [Compound 3e, (S)-(6-(((3-fluoro-5-(trifluoromethyl)pyridin-2-yl)amino)methyl)-5-azaspiro[2.4]heptan-5-yl)(6-methyl-3-phenylpyridin-2-yl)methanone] were, in that order, 3.98 nM and 7.94 nM.
The like results for `Cc1ccc(-n2ccc(C)n2)c(C(=O)N2CC3(CC3)C[C@H]2CNc2ccc(C(F)(F)F)cn2)n1` [Compound 3j, (S)-(6-methyl-3-(3-methyl-1H-pyrazol-1-yl)pyridin-2-yl)(6-(((5-(trifluoromethyl)pyridin-2-yl)amino)-methyl)-5-azaspiro[2.4]heptan-5-yl)methanone] were, in that order, 1.26 nM and 15.8 nM.
With `O=C(c1cc(Cl)ccc1-c1ncccn1)N1CC2(CC2)C[C@H]1CNc1cc(Cl)c(C(F)(F)F)cn1` [Compound 1v, (S)-(5-chloro-2-(pyrimidin-2-yl)phenyl)(6-(((4-chloro-5-(trifluoromethyl)pyridin-2-yl)amino)methyl)-5-azaspiro[2.4]heptan-5-yl)methanone], the Kb is 6.31 nM on human OX1 receptors and 10 nM on human OX2 receptors.
The like results for `Cc1ccc(-c2ncccn2)c(C(=O)N2CC3(CC3)C[C@H]2CNc2nc3ccccc3o2)n1` [Compound E9, (S)-(6-((benzo[d]oxazol-2-ylamino)methyl)-5-azaspiro[2.4]heptan-5-yl)(6-methyl-3-(pyrimidin-2-yl)pyridin-2-yl)methanone] were, in that order, 0.631 nM and 25.1 nM.
The like results for `Cc1nc(C(=O)N2CC3(CC3)C[C@H]2CNc2cc(C(F)(F)F)ccn2)c(-c2ccccc2)s1` [Compound 2j, (S)-(2-methyl-5-phenylthiazol-4-yl)(6-(((4-(trifluoromethyl)pyridin-2-yl)amino)methyl)-5-azaspiro[2.4]heptan-5-yl)methanone] were, in that order, 6.31 nM and 3.16 nM.

The values above are taken from US9062033B2, “Chemical compounds” (Rottapharm Biotech S.r.l., priority 2011, dated 2015).
